According to patent publication US20030219467A1, “Method for the inhibition of methanogensis” (The Board of Regents of the University of Nebraska, priority 2001, published 2003):
In brackets after ≈: the same amount, converted by molar mass. Read-outs that look alike come from different tables or passages of the source.

Legend:
M. marburgensis [1] = assay: microbe, parasite or virus in culture; format: cell-based; conditions: for MIC: read-out: Inhibition of Growth M. marburgensis: concentration of compound which completely inhibited growth; for inhibition of growth of Methanothermobacter marburgensis (figure legend): FIG. 4: 1000 μM A2, 300 μM and 500 μM A4
RFA-P synthase = target: T1, RFA-P synthase (Archaeoglobus fulgidus, UniProt O28190); assay: biochemical; format: biochemical
T1 sequence (O28190 1-313): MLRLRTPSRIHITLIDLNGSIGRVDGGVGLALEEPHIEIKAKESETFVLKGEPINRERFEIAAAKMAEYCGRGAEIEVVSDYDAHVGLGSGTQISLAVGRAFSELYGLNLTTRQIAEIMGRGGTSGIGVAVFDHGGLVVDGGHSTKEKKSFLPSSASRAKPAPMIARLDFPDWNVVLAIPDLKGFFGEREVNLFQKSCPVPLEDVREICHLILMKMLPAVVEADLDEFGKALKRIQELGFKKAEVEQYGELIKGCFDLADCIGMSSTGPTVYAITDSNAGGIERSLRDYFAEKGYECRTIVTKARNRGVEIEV

M. marburgensis [2] = format: cell-based
ruminal organisms = assay: Ruminal fluid batch culture (artificial rumen): growth inhibition / methane formation; format: cell-based, steers
Moorella thermoacetica = assay: Inhibition of growth of acetogen Moorella thermoacetica; format: cell-based; conditions: FIG. 5
[3] = Methanothermobacter marburgensis, H2/CO2-grown, 65° C., OD 580 nm, words refer to 1 millimolar
[4] = inhibition constant, substrates at saturating concentrations, first tested at 1 mM, competitive inhibition fit, read-out: Ki
[5] = total methane over 48 hours, compound at (100), 600 micromoles without inhibitor
[6] = Methanothermobacter marburgensis

SMILES	MIC (M. marburgensis [1]; [3])	Ki (RFA-P synthase; [4])	further results
CCCCCCNc1ccc(C(=O)O)cc1 [Compound A21]	500 µM (≈ 111 µg/mL)	–	–
Cc1cc(C(=O)O)ccc1NC(C)C [Compound A16]	300 µM (≈ 58 µg/mL)	23 µM	–
CC(C)Nc1ccc(C(=O)O)cc1 [Compound A3]	100 µM (≈ 17.9 µg/mL)	9 µM	Methane Produced (M. marburgensis [2]; [5]): 0.01 μ moles
OCc1ccc(B(O)O)cc1 [Compound A15]	–	9 µM	MIC (M. marburgensis [1]; [6]): 100 µM (≈ 15.2 µg/mL)
CCC(C(=O)O)c1ccc(N)cc1 (centres unmarked) [Compound A41]	500 µM (≈ 89.6 µg/mL)	–	–
Nc1nc(CC(=O)O)cs1 [Compound D6]	500 µM (≈ 79.1 µg/mL)	–	–
O=C(O)c1ccc(NCc2ccc(O)cc2)cc1 [Compound A32]	300 µM (≈ 73 µg/mL)	–	–
CC(C)OP(=O)(O)c1ccc(N)cc1 [Compound A13]	–	–	Ki (RFA-P synthase): 15 µM; MIC (M. marburgensis [1]; [6]): 1000 µM (≈ 215 µg/mL)
CCNc1ccc(C(=O)O)cc1 [Compound A19]	–	–	Ki (RFA-P synthase): 155 µM; MIC (M. marburgensis [1]; [6]): 300 µM (≈ 49.6 µg/mL)
Nc1ccc(CC(=O)O)cc1 [Compound A9, (4-aminophenyl)acetic acid]	–	60 µM	MIC (M. marburgensis [1]; [6]): 1000 µM (≈ 151 µg/mL)
O=C(O)c1c[nH]cn1 [Compound D3]	–	–	MIC (M. marburgensis [1]; [6]): 1000 µM (≈ 112 µg/mL)
CCCNc1ccc(C(=O)O)cc1 [Compound A20]	600 µM (≈ 108 µg/mL)	20 µM	Methane Produced (M. marburgensis [2]; total methane over 48 hours, compound at (600), 600 micromoles without inhibitor): 0.05 μ moles; inhibition of RFA-P synthase (figure legend) (RFA-P synthase): inhibit RFA-P synthase
CCNc1ccc(C(=O)O)cc1 [4-(ethylamino)benzoate]	–	–	methane production, % of the control level (ruminal organisms): 2.5%
CC(C)CCNc1ccc(C(=O)O)cc1 [Compound A24]	1000 µM (≈ 207 µg/mL)	–	–
O=C(O)[C@H]1CC[C@H](NCc2ccco2)CC1 [Compound B2]	500 µM (≈ 112 µg/mL)	–	–
O=C(O)c1ccc(NCCO)cc1 [Compound A5]	300 µM (≈ 54.4 µg/mL)	17 µM	–
CC(C)Nc1ccc(P(=O)(O)OC(C)C)cc1 [Compound A50]	–	–	MIC (M. marburgensis [1]; [6]): 100 µM (≈ 25.7 µg/mL)
O=C(O)c1ccc(NCc2ccccn2)cc1 [Compound A33]	0.1 µM (≈ 0.0228 µg/mL)	19 µM	Methane Produced (M. marburgensis [2]; total methane over 48 hours, compound at (0.1), 600 micromoles without inhibitor): 0.08 μ moles
O=C(O)c1ccc(NCc2cccs2)cc1 [Compound A27]	–	72 µM	–
N[C@H]1CC[C@H](C(=O)O)CC1 [Compound B7]	500 µM (≈ 71.6 µg/mL)	–	–
NCc1ccc(C(=O)O)cc1 [Compound A7, 4-(aminomethyl)benzoic acid]	–	75 µM	Methane Produced (M. marburgensis [2]): 0.07 μ moles; inhibition of RFA-P synthase (figure legend) (RFA-P synthase): inhibit RFA-P synthase
CC(C)OP(=O)(O)c1ccc(NCc2cccnc2)cc1 [Compound A52]	–	–	MIC (M. marburgensis [1]; [6]): 1000 µM (≈ 306 µg/mL)

SMILES	MIC (M. marburgensis [1]; [3])	Ki (RFA-P synthase; [4])	further results
Cc1cccc(CNc2ccc(C(=O)O)cc2)n1 [Compound A34]	–	19 µM	–
O=P(O)(O)OC[C@H]1N[C@@H](c2ccccc2)[C@H](O)[C@@H]1O [Compound C1]	500 µM (≈ 145 µg/mL)	30 µM	–
NCc1ccc(B(O)O)cc1 [Compound A2]	–	140 µM	inhibition of growth of Methanothermobacter marburgensis (figure legend) (M. marburgensis [1]): inhibit growth; inhibition of growth of Moorella thermoacetica (figure legend) (Moorella thermoacetica): inability
CCCCOP(=O)(O)c1ccc(NC(C)C)cc1 [Compound A53]	–	–	Ki (RFA-P synthase): 25 µM; MIC (M. marburgensis [1]; [6]): 300 µM (≈ 81.4 µg/mL)
Nc1cc(C(=O)O)ccn1 [Compound A39]	1000 µM (≈ 138 µg/mL)	–	–
CCOP(=O)(OCC)c1ccc(NCC(C)C)cc1 [Compound A47]	–	–	MIC (M. marburgensis [1]): 500 µM (≈ 143 µg/mL)
O=C(O)c1ccc(NCc2ccncc2)cc1 [Compound A36]	1000 µM (≈ 228 µg/mL)	–	–
CCOP(=O)(O)c1ccc(N)cc1 [Compound A48]	–	–	Ki (RFA-P synthase): 65 µM
O=C(O)c1ccc(NC2CCCC2)cc1 [Compound A25]	1000 µM (≈ 205 µg/mL)	–	–
Nc1ccc(/C=C/C(=O)O)cc1 [Compound A80]	500 µM (≈ 81.6 µg/mL)	–	–
CCCOC(=O)c1ccc(NC(C)C)cc1 [Compound A65]	–	130 µM	–
O=C(O)[C@H]1CC[C@@H](NCc2ccco2)CC1 [Compound B1]	0.1 µM (≈ 0.0223 µg/mL)	63 µM	–
OCc1ccc([C@@H]2N[C@H](CO)[C@@H](O)[C@H]2O)cc1 [Compound C4]	1000 µM (≈ 239 µg/mL)	–	–
O=C(O)c1ccc(CO)cc1 [Compound A40]	–	270 µM	–
O=C(O)c1ccc(NCc2ccsc2)cc1 [Compound A28]	1000 µM (≈ 233 µg/mL)	55 µM	–
O=C(O)c1ccc(NCc2ccc3ccccc3n2)cc1 [Compound A35]	1000 µM (≈ 278 µg/mL)	–	–
CCCCNc1ccc(C(=O)O)cc1 [Compound A58]	–	–	MIC (M. marburgensis [1]; [6]): 1000 µM (≈ 193 µg/mL)
Cc1cc(S(=O)(=O)O)ccc1N [Compound A45]	–	–	MIC (M. marburgensis [1]; [6]): 500 µM (≈ 93.6 µg/mL)
O=C(O)c1ccc(NCc2ccccc2O)cc1 [Compound A31]	1000 µM (≈ 243 µg/mL)	705 µM	–
CC(C)CNc1ccc(C(=O)O)cc1 [Compound A4]	500 µM (≈ 96.6 µg/mL)	10 µM	Methane Produced (M. marburgensis [2]; total methane over 48 hours, compound at (500), 600 micromoles without inhibitor): 0.02 μ moles; inhibition of RFA-P synthase (figure legend) (RFA-P synthase): inhibit RFA-P synthase; inhibition of growth of Methanothermobacter marburgensis (figure legend) (M. marburgensis [1]): inhibit growth; inhibition of growth of Moorella thermoacetica (figure legend) (Moorella thermoacetica): inability
O=C(O)Cc1ccc(O)cc1 [Compound A44]	–	–	Ki (RFA-P synthase): 115 µM
O=C(O)c1ccc(NCc2c(F)c(F)c(F)c(F)c2F)cc1 [Compound A30]	500 µM (≈ 159 µg/mL)	–	–

SMILES	MIC (M. marburgensis [1]; [3])	Ki (RFA-P synthase; [4])	further results
CNc1ccc(C(=O)O)cc1 [Compound A56]	–	145 µM	–
O=C(O)c1ccc(NCCO)cc1 [4-(2-hydroxyethylamino)benzoate]	–	–	methane production, % of the control level (ruminal organisms; artificial rumen, 9 mM compound): 2.5%
O=C(O)c1ccc(NCc2ccccn2)cc1 [4-[(2-pyridylmethyl)amino]benzoic acid]	–	–	concentration that completely arrests growth of and methane formation by M. marburgensis (M. marburgensis [1]): 100 mM; reversal of inhibition by supplementing the medium with pABA (M. marburgensis [1]; M. marburgensis): fully reversed
Nc1cccc(CC(=O)O)c1 [Compound A43]	500 µM (≈ 75.6 µg/mL)	–	–
CC(C)CN[C@H]1CC[C@@H](C(=O)O)CC1 [Compound B3]	–	44 µM	–
CC(C)Nc1ccc(C(=O)O)cc1 [4-(isopropylamino)benzoic acid]	–	–	inhibition of RFA-P synthase (figure legend) (RFA-P synthase): inhibition of RFA-P synthase; inhibition of methanogen growth (figure legend) (M. marburgensis [1]; FIG. 7A: M. marburgensis, 15, 25, 75 and 90 micromoles of compound, OD 580 nm): inhibition of methanogen growth
CCCCOC(=O)c1ccc(NC(C)C)cc1 [Compound A66]	1000 µM (≈ 235 µg/mL)	190 µM	–
Nc1ccc(S(=O)(=O)O)cc1 [Compound A12]	–	7 µM	–
OB(O)c1ccncc1 [Compound A74]	–	200 µM	–
Nc1ccc(P(=O)(O)O)cc1 [Compound A49]	–	–	Ki (RFA-P synthase): 85 µM
CCOC(=O)c1ccc(NC(C)C)cc1 [Compound A11]	1000 µM (≈ 207 µg/mL)	130 µM	–
CCCCOP(=O)(O)c1ccc(N)cc1 [Compound A14]	–	–	Ki (RFA-P synthase): 25 µM
CC(Nc1ccc(C(=O)O)cc1)C(F)(F)F (centres unmarked) [Compound A22]	–	59 µM	–
Nc1ccc(C(=O)O)cc1O [Compound A38]	500 µM (≈ 76.6 µg/mL)	–	–
O=C(O)Cc1ccc(NCc2ccco2)cc1 [Compound A42]	1000 µM (≈ 231 µg/mL)	–	–
CC(C)OP(=O)(O)c1ccc(NCc2ccco2)cc1 [Compound A51]	–	–	MIC (M. marburgensis [1]; [6]): 100 µM (≈ 29.5 µg/mL)
Nc1n[nH]c(C(=O)O)n1 [Compound D7]	1000 µM (≈ 128 µg/mL)	–	–
O=C(O)c1ccc(NCc2ccccc2)cc1 [Compound A29]	500 µM (≈ 114 µg/mL)	51 µM	–
CCCCOP(=O)(O)c1ccc(NCc2ccccn2)cc1 [Compound A55]	–	–	Ki (RFA-P synthase): 25 µM; MIC (M. marburgensis [1]; [6]): 100 µM (≈ 32 µg/mL)
O=C(O)c1ccc(NCc2ccoc2)cc1 [Compound A26]	100 µM (≈ 21.7 µg/mL)	84 µM	Methane Produced (M. marburgensis [2]; [5]): 0.06 μ moles
O=C(O)c1ccc(NCc2ccco2)cc1 [Compound A6]	300 µM (≈ 65.2 µg/mL)	7.5 µM	–
